The text below walks through data of patent publication US11635379B2, “Portable wide field fluorimeter systems” (priority 2017, dated 2023).

In assay [1] the target is T1, S. Aureus (Staphylococcus aureus, UniProt P00807).
T1 construct: endogenous in cells
The assay is described as follows: Antibiotic susceptibility testing by β-LEAF fluorescence in microfluidic device with portable fluorimeter. The format is cell-based. On the procedure:
In another experiment, fluorometric assay techniques were examined using a microfluidic device (e.g., the microfluidic device 102) and fluorescence images were collected using a portable wide field fluorimeter similar to the system 700 depicted in FIGS. 7A-D. In this experiment, the detection reagent was a 20 μM β-LEAF Bodipy-FL probe solution (2×stock) that was prepared in 40% DMSO in PBS, and an antibiotic solution was a […] penicillin G solution (4×stock) that was prepared by dissolving the antibiotic powder in PBS. Two different types of liquid samples were prepared. A first liquid sample (which included the antibiotic solution) was prepared by combining the 25 μl bacterial suspension, 50 μl of probe 2×stock solution, and 25 μl antibiotic 4×stock solution. […]
Data acquisition involved collecting a fluorescent reading by the camera every 3 seconds. […] Fluorescence was measured in a machine specific standard unit. […]
To analyze image data, a region of interest was selected over an area of bacteria capture corresponding to a chamber of the microfluidic device was the liquid samples were collected. Fluorescence data was extracted in a green channel. […]
The experiment was performed using two liquid samples that were introduced into a microfluidic device and monitored for fluorescence over a 10-minute time period. […]

The target in assay [2] is T2, β-lactamase producing strain (B-lac(+)) (Staphylococcus aureus, UniProt P00807).
T2 construct: a known β-lactamase producing strain (B-lac(+)); host or cells: S. aureus ATCC control strain, β-lactamase producing (B-lac(+))
The format is cell-based. The following applies: B-lac(+) S. aureus, β-LEAF with vs without cefazolin, 60-minute time course, 37° C.
From the text: Consequently, the fluorophores are unable to emit fluorescence due to ground state interactions between each other. However, after probe cleavage by β-lactamase, the fluorophores diffuse away from each other, are no longer quenched, and thus regain their fluorescent properties. […] If the assay is repeated in the presence of a cleavable antibiotic that competes with the β-LEAF for β-lactamase cleavage, the rate of β-LEAF cleavage will decrease, resulting in no fluorescence increase.
To encapsulate the data, the suppression of fluorescence change (ΔFs) is defined as (ΔFBL−ΔFBL+antibiotic)/ΔFBL, where ΔFBL and ΔFBL+antibiotic is the fluorescence rate of change of the β-lactamase only and β-lactamase and antibiotic conditions, respectively. […]
Time course assays were carried out with each of the two liquid samples by monitoring β-LEAF cleavage by measuring fluorescence for 60 minutes, at 1 minute intervals using a Spectramax® M5 Plate Reader (Molecular Devices). […] Fluorescence was measured in a machine specific standard unit.
In this example, β-LEAF assays were performed with the two ATCC S. aureus control bacterial strains, a known β-lactamase producing strain (B-lac(+)) and a known β-lactamase non-producing strain (B-lac(−)). […] Four test solutions were prepared and examined for time-course fluorescence intensity changes: […]

T1 sequence (P00807 25-281): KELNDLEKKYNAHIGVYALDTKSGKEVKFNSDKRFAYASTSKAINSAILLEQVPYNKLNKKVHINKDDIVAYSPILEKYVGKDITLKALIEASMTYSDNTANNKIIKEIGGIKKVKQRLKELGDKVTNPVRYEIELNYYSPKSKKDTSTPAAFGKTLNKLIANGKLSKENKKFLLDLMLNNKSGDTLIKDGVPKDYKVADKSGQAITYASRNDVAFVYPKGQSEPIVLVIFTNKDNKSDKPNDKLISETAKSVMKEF
T2 sequence (P00807 25-281): as above

Regarding `CC1(C)S[C@@H]2[C@H](NC(=O)Cc3ccccc3)C(=O)N2[C@H]1C(=O)O` [Penicillin G], in assay [1] (50 μl sample, 2.5e6 CFU/ml S. Aureus, fluorescent probe plus Penicillin G), the “change of fluorescence intensity over the ten-minute time period” value was “did not change significantly”. In assay [1] (S. Aureus, competition with fluorescent probe), the “susceptibility of the antibiotic to cleavage by the bacteria” value is given as “vulnerable to cleaving”. Consider `Cc1nnc(SCC2=C(C(=O)O)N3C(=O)[C@@H](NC(=O)Cn4cnnn4)[C@H]3SC2)s1` [cefazolin], for which the “suppression of fluorescence change (ΔFs)” value in assay [2] is about 1.
